In the supplement of paper PMC10627819:

Key:
B. subtilis 168 [1] = experiment: fitness (endpoint OD595 vs no drug) (fraction); higher = more growth
How it was run: (§1)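 Cultures at OD595 0.01 were dispensed into 384-well plates in TSB, LB Lennox or CY and incubated at 37 °C. Every 30 min for 14 h, OD595 was read and corrected by the first reading. Fitness is the optical density at entry into stationary phase relative to the robust mean of no-drug control wells, capped at 1.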

S. pneumoniae D39V [2] = experiment: as above
How it was run: as §1

B. subtilis 168 [3] = experiment: Bliss interaction score (quartile over a dose matrix) (fitness difference); higher = more antagonism (negative = synergy)
How it was run: (§2)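 Quartiles of the Bliss score were taken over technical, biological and donor/recipient replicates. That score is observed fitness minus the product of the single-drug fitness values, which were inferred from combination data. Fitness itself is OD595 at entry into stationary phase divided by the plate's robust no-drug mean, with a cap at 1.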

S. aureus DSM 20231 = experiment: as above
How it was run: as §2

S. aureus Newman = experiment: as above
How it was run: as §2

S. pneumoniae D39V [4] = experiment: as above
How it was run: as §2
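Wherever Bliss interaction score (quartile over a dose matrix) is given: first quartile when negative (synergy) and third quartile when positive (antagonism).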

CO/N=C(\C(=O)N[C@@H]1C(=O)N2C(C(=O)O)=C(COC(C)=O)CS[C@H]12)c1csc(N)n1 [Cefotaxime] + CN(C)C(=O)C(CCN1CCC(O)(c2ccc(Cl)cc2)CC1)(c1ccccc1)c1ccccc1 [Loperamide]
fitness, one replicate
Details | first compound 0.0018 µg/mL | first compound 0.0035 µg/mL | first compound 0.007 µg/mL | first compound 0.00775 µg/mL | first compound 0.0155 µg/mL | first compound 0.031 µg/mL
B. subtilis 168 [1], partner 25 µg/mL | – | – | – | 0.406 | 0.0668 | 0.0762
B. subtilis 168 [1], partner 50 µg/mL | – | – | – | 0.0446 | 0.0311 | 0.0295
B. subtilis 168 [1], partner 100 µg/mL | – | – | – | 0.0412 | 0.0228 | 0.0243
S. pneumoniae D39V [2], partner 68.57 µg/mL | ≥ 1 | 0.999 | 0.761 | – | – | –

Details | fitness
B. subtilis 168 [1], first compound 0.5 µg/mL, partner 25 µg/mL | 0.0401
B. subtilis 168 [1], first compound 0.5 µg/mL, partner 50 µg/mL | 0.0447
B. subtilis 168 [1], first compound 0.5 µg/mL, partner 100 µg/mL | 0.0339
B. subtilis 168 [1], first compound 1 µg/mL, partner 25 µg/mL | 0.0257
B. subtilis 168 [1], first compound 1 µg/mL, partner 50 µg/mL | 0.0406
B. subtilis 168 [1], first compound 1 µg/mL, partner 100 µg/mL | 0.032
B. subtilis 168 [1], first compound 2 µg/mL, partner 25 µg/mL | 0.0689
B. subtilis 168 [1], first compound 2 µg/mL, partner 50 µg/mL | 0.0803
B. subtilis 168 [1], first compound 2 µg/mL, partner 100 µg/mL | 0.0709
S. pneumoniae D39V [2], first compound 0.0018 µg/mL, partner 17.14 µg/mL | 0.977
S. pneumoniae D39V [2], first compound 0.0018 µg/mL, partner 20 µg/mL | 0.988
S. pneumoniae D39V [2], first compound 0.0018 µg/mL, partner 34.28 µg/mL | 0.984
S. pneumoniae D39V [2], first compound 0.0018 µg/mL, partner 40 µg/mL | ≥ 1
S. pneumoniae D39V [2], first compound 0.0018 µg/mL, partner 80 µg/mL | ≥ 1
S. pneumoniae D39V [2], first compound 0.0035 µg/mL, partner 17.14 µg/mL | 0.981
S. pneumoniae D39V [2], first compound 0.0035 µg/mL, partner 20 µg/mL | 0.984
S. pneumoniae D39V [2], first compound 0.0035 µg/mL, partner 34.28 µg/mL | 0.935
S. pneumoniae D39V [2], first compound 0.0035 µg/mL, partner 40 µg/mL | 0.977
S. pneumoniae D39V [2], first compound 0.0035 µg/mL, partner 80 µg/mL | 0.956
S. pneumoniae D39V [2], first compound 0.007 µg/mL, partner 20 µg/mL | 0.898
S. pneumoniae D39V [2], first compound 0.007 µg/mL, partner 40 µg/mL | 0.842
S. pneumoniae D39V [2], first compound 0.007 µg/mL, partner 80 µg/mL | 0.262

Details | Bliss interaction score
B. subtilis 168 [3] | -0.0982
S. aureus DSM 20231 | -0.0602
S. aureus Newman | 0.0269
S. pneumoniae D39V [4] | -0.0572

C[C@H]1c2cccc(O)c2C(=O)C2=C(O)[C@]3(O)C(=O)C(C(N)=O)=C(O)[C@@H](N(C)C)[C@@H]3[C@@H](O)[C@@H]21 [Doxycycline] + CC1=C\[C@@H](O)CC(=O)Cc2nc(co2)C(=O)N2CCC=C2C(=O)O[C@H](C(C)C)[C@H](C)/C=C/C(=O)NC\C=C\1 [Virginiamycin M1]
fitness
Details | first compound 0.0155 µg/mL | first compound 0.02 µg/mL | first compound 0.031 µg/mL | first compound 0.04 µg/mL | first compound 0.062 µg/mL | first compound 0.08 µg/mL
B. subtilis 168 [1], partner 0.0625 µg/mL | – | 0.898 | – | 0.805 | – | 0.572
B. subtilis 168 [1], partner 0.125 µg/mL | – | 0.899 | – | 0.726 | – | 0.458
B. subtilis 168 [1], partner 0.25 µg/mL | – | 0.936 | – | 0.806 | – | 0.491
S. pneumoniae D39V [2], partner 0.5 µg/mL | 0.968 | – | 0.902 | – | 0.813 | –
S. pneumoniae D39V [2], partner 1 µg/mL | 0.998 | – | 0.847 | – | 0.831 | –
S. pneumoniae D39V [2], partner 2 µg/mL | 0.904 | – | 0.794 | – | 0.758 | –

S. pneumoniae D39V [2], one replicate
Details | fitness
first compound 0.003875 µg/mL, partner 0.5 µg/mL | ≥ 1
first compound 0.003875 µg/mL, partner 1 µg/mL | ≥ 1
first compound 0.003875 µg/mL, partner 2 µg/mL | ≥ 1
first compound 0.00775 µg/mL, partner 0.5 µg/mL | 0.995
first compound 0.00775 µg/mL, partner 1 µg/mL | ≥ 1
first compound 0.00775 µg/mL, partner 2 µg/mL | ≥ 1
first compound 0.0155 µg/mL, partner 0.15 µg/mL | 0.887
first compound 0.0155 µg/mL, partner 0.3 µg/mL | 0.823
first compound 0.031 µg/mL, partner 0.15 µg/mL | 0.878
first compound 0.031 µg/mL, partner 0.3 µg/mL | 0.819
first compound 0.062 µg/mL, partner 0.15 µg/mL | 0.793
first compound 0.062 µg/mL, partner 0.3 µg/mL | 0.762

Details | Bliss interaction score
B. subtilis 168 [3] | 0.0353
S. aureus DSM 20231 | -0.151
S. aureus Newman | -0.0791
S. pneumoniae D39V [4] | 0.0434
